Patent publication US8558011B2, “Cold menthol receptor-1 antagonists” (Janssen Pharmaceutica, NV, priority 2010, dated 2013)
pIC50: −log10 of the molar value. Several values for one entry are separate records, joined by “and”; a condition that tells them apart may be missing. Equal values may be shown once.

Target: T1, canine TRPM8 (Canis lupus familiaris, UniProt Q1A7N1)
T1 construct: expressed in transfected cells
Test: In Vitro Canine TRPM8 Functional Assay (Ca2+-sensitive fluorescent dye, icilin activation, FLIPR/FDSS)
Type: cell-based
Conditions: HEK293 cells stably expressing canine TRPM8, icilin activation; for pIC50: eight-point dose-response; for % I (1 μM): compound at 1 μM; for % I (0.5 μM): compound at 0.5 μM
Protocol: The functional activity of compounds of Formula (I) was determined by measuring changes in intracellular calcium concentration using a Ca^2+-sensitive fluorescent dye. The changes in fluorescent signal were monitored by a fluorescence plate reader, either a FLIPR™ (Molecular Devices) or FDSS (Hamamatsu).
HEK293 cells stably expressing canine TRPM8 were routinely grown as monolayers in Dulbecco's minimum essential medium supplemented with 10% FBS, 1 mM L-glutamine, 100 units/mL penicillin, 100 ug/mL streptomycin and 400 μg/mL G418. Cells were maintained in 5% CO2 at 37° C. At 24 hrs prior to assay, cells were seeded in clear-base poly-D-lysine coated 384-well plates (BD Biosciences, NJ, USA) at a density of 5,000 cells per well in culture medium and grown overnight in 5% CO2 at 37° C. On assay day, growth media was removed and cells were loaded with Calcium 3 Dye (Molecular Devices) for 35 min at 37° C., under 5% CO2 and then for 25 min at room temperature and atmosphere. Subsequently, cells were tested for agonist-induced increases in intracellular Ca^2+ levels using FLIPR™ or FDSS. Cells were challenged with a compound of Formula (I) (at varying concentrations) and intracellular Ca^2+ was measured for 5 min prior to the addition of icilin to all wells to achieve a final concentration which produces approximately an 80% maximal response.
Basal FI was subtracted prior to normalizing data to percent of maximal response. Curves were generated using the average of quadruplicate wells for each data point, were analyzed using nonlinear regression of either sigmoidal dose response or sigmoidal dose response (variable slope). Finally, the EC50 and IC50 values were calculated with the best-fit dose curve determined by GraphPad Prism.

T1 sequence (Q1A7N1 1-1104): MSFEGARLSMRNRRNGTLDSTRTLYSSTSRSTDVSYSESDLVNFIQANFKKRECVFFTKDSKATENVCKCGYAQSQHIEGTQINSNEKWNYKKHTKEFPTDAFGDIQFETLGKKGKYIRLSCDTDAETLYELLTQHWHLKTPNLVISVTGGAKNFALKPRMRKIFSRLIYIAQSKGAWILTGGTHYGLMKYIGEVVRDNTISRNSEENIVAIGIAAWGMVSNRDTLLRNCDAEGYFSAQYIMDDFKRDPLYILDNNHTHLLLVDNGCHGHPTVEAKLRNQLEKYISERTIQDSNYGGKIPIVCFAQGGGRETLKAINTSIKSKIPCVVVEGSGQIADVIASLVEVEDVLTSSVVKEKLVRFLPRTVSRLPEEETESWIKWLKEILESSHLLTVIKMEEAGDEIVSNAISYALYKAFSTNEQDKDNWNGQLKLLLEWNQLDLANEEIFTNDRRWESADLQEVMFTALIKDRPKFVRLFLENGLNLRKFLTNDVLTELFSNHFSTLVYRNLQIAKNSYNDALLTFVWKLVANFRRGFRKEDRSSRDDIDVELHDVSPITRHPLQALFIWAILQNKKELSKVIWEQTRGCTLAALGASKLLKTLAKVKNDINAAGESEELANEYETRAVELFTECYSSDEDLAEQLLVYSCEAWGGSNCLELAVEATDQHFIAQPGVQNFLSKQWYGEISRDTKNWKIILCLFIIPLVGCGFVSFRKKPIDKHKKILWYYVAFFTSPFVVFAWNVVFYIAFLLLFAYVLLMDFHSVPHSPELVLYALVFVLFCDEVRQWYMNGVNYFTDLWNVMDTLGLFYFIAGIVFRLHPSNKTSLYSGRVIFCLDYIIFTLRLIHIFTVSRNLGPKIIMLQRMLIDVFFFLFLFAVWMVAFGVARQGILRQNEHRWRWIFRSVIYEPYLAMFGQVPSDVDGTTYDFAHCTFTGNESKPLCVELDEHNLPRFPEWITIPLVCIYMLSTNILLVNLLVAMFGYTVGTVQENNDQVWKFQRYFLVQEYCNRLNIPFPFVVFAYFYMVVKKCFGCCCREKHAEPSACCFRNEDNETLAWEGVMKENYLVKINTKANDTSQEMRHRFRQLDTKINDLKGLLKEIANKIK

SMILES	pIC50	% I (1 μM)	% I (5 μM) (compound at 5 μM)	% I (0.5 μM)
CCOP(=O)(OCC)C(Cc1cccc(F)c1F)c1sc2ccccc2c1C (racemic) [Cpd 10]	7.37	100%	–	–
Cc1c(C(Cc2ccc(F)c(F)c2)P(=O)(OC(C)C)OC(C)C)oc2ccccc12 (racemic) [Cpd 11]	7.37 and 7.33	99% and 103%	–	–
CC(C)OP(=O)(OC(C)C)C(Cc1ccc(F)c(F)c1)c1sc2ccccc2c1C(C)C (racemic) [Cpd 19]	7.17	100%	–	–
CCOP(=O)(OCC)C(Cc1cccc(Cl)c1F)c1sc2ccccc2c1C (racemic) [Cpd 23]	7.02	100%	–	–
CCOP(=O)(OCC)C(Cc1ccccc1C)c1sc2ccccc2c1C (racemic) [Cpd 26]	6.97	100%	–	–
CCOP(=O)(OCC)C(Cc1ccc(F)cc1Cl)c1sc2ccccc2c1C (racemic) [Cpd 27]	6.96	99%	–	–
CCOP(=O)(OCC)C(Cc1cc(F)cc(F)c1Cl)c1sc2ccccc2c1C (racemic) [Cpd 28]	6.96	100%	–	–
CCOP(=O)(OCC)C(Cc1cccc(Cl)c1Cl)c1sc2ccccc2c1C (racemic) [Cpd 35]	6.90	100%	–	–
CCOP(=O)(OCC)C(Cc1cccc(C(F)(F)F)c1F)c1sc2ccccc2c1C (racemic) [Cpd 37]	6.90	100%	–	–
CC(C)OP(=O)(OC(C)C)C(Cc1ccc(F)c(F)c1)c1sc2ccccc2c1C1CCCC1 (racemic) [Cpd 38]	6.85	99%	–	–
CCOP(=O)(OCC)C(Cc1cccc(C(F)(F)F)c1)c1cc2ccccc2s1 (racemic) [Cpd 39]	6.85	100%	–	–
CCOP(=O)(OCC)C(Cc1ccc2ccccc2c1)c1sc2ccccc2c1C (racemic) [Cpd 46]	6.78	99%	–	–
CCOP(=O)(OCC)C(Cc1cc(Cl)ccc1Cl)c1sc2ccccc2c1C (racemic) [Cpd 47]	6.78	100%	–	–
CCOP(=O)(OCC)C(Cc1ccccc1Cl)c1sc2ccccc2c1C (racemic) [Cpd 48]	6.77	100%	–	–
CCOP(=O)(OCC)C(Cc1ccc(F)c(F)c1)c1sc2cccc(F)c2c1C (centres unmarked) [Cpd 3, [2-(3,4-Difluoro-phenyl)-1-(4-fluoro-3-methyl-benzo[b]-thiophene-2-yl)-ethyl]-phosphonic acid diethyl ester]	–	100%	–	–
CCOP(=O)(OCC)C(Cc1ccc(F)c(F)c1)c1sc2c(F)cccc2c1C (centres unmarked) [Cpd 8, [2-(3,4-Difluoro-phenyl)-1-(7-fluoro-3-methyl-benzo[b-]thiophene-2-yl)-ethyl]-phosphonic acid diethyl ester]	–	100%	–	–
CCOP(=O)(OCC)C(Cc1ccc(F)c(F)c1)c1oc2ccccc2c1C (centres unmarked) [Cpd 9, [2-(3,4-Difluoro-phenyl)-1-(3-methyl-benzofuran-2-yl)-ethyl]-phosphonic acid diethyl ester]	–	100%	–	–
CCOP(=O)(OCC)C(Cc1ccc(F)c(F)c1)c1sc2cc(F)ccc2c1C (centres unmarked) [Cpd 16, [2-(3,4-Difluoro-phenyl)-1-(6-fluoro-3-methyl-benzo[b]-thiophene-2-yl)-ethyl]-phosphonic acid diethyl ester]	–	100%	–	–
CCOP(=O)(OCC)C(Cc1ccc(Cl)c(Cl)c1)c1sc2ccccc2c1Br (centres unmarked) [Cpd 24, [1-(3-Bromo-benzo[b]thiophen-2-yl)-2-(3,4-dichloro-phenyl)-ethyl]-phosphonic acid diethyl ester]	–	100%	–	–
CCOP(=O)(OCC)C(Cc1ccc(F)c(F)c1)c1sc2ccc(F)cc2c1C (centres unmarked) [Cpd 45, [2-(3,4-Difluoro-phenyl)-1-(5-fluoro-3-methyl-benzo[b]thiophene-2-yl)-ethyl]-phosphonic acid diethyl ester]	–	100%	–	–
CCOP(=O)(OCC)C(Cc1ccc(F)c(F)c1)c1sc2cccc(Cl)c2c1C (centres unmarked) [Cpd 65, [1-(4-Chloro-3-methyl-benzo[b]thiophen-2-yl)-2-(3,4-difluoro-phenyl)-ethyl]-phosphonic acid diethyl ester]	–	100%	–	–
CCOP(=O)(OCC)C(Cc1ccc(Cl)c(Cl)c1)c1cc2ccccc2s1 (centres unmarked) [Cpd 78, [1-Benzo[b]thiophen-2-yl-2-(3,4-dichloro-phenyl)-ethyl]-phosphonic acid diethyl ester]	–	95%	–	–
CCOP(=O)(OCC)C(C)(Cc1ccc(F)c(F)c1)c1sc2ccccc2c1C (centres unmarked) [Cpd 79, [2-(3,4-Difluoro-phenyl)-1-methyl-1-(3-methyl-benzo[b]-thiophen-2-yl)-ethyl]-phosphonic acid diethyl ester]	–	88%	–	–
CCOP(=O)(Cc1cc2ccccc2s1)OCc1c(Cl)cccc1Cl (centres unmarked) [Cpd 94, Benzo[b]thiophen-2-ylmethyl-phosphonic acid 2,6-dichloro-benzyl ester ethyl ester]	–	79%	–	–
CCOP(=O)(Cc1cc2ccccc2s1)OCc1ccccc1C (centres unmarked) [Cpd 104, Benzo[b]thiophen-2-ylmethyl-phosphonic acid ethyl ester 2-methyl-benzyl ester]	–	53%	–	–

SMILES	pIC50	% I (1 μM)	% I (5 μM) (compound at 5 μM)	% I (0.5 μM)
CCOP(=O)(Cc1cc2ccccc2s1)OCc1ccccc1Cl (centres unmarked) [Cpd 105]	6.00	48%	100%	–
CCOP(=O)(Cc1cc2ccccc2s1)OCc1ccccc1F (centres unmarked) [Cpd 109, Benzo[b]thiophen-2-ylmethyl-phosphonic acid ethyl ester 2-fluoro-benzyl ester]	–	17%	–	–
CCOP(=O)(OCC)C(Cc1ccc(F)c(F)c1)c1sc2ncccc2c1Br (centres unmarked) [Cpd 132, 1-[(3-Bromo-thieno[2,3-b]pyridin-2-yl)-2-(3,4-difluoro-phenyl)-ethyl]-phosphonic acid diethyl ester]	–	102%	–	–
CCOP(=O)(OCC)C(Cc1cccc(Cl)c1F)c1sc2ccccc2c1Br (centres unmarked) [Cpd 143]	7.17	–	–	101%
CCOP(=O)(OCC)C(Cc1ccc(C(F)(F)F)c(F)c1)c1sc2ccccc2c1Br (centres unmarked) [Cpd 144]	7.24	–	–	101%
CCOP(=O)(OCC)C(Cc1cccc(OC(F)(F)F)c1)c1sc2ccccc2c1Br (centres unmarked) [Cpd 145]	6.92 and 6.94	–	–	103, % and 102%
CCOP(=O)(OCC)C(Cc1cc(C(F)(F)F)ccc1F)c1sc2ccccc2c1Br (centres unmarked) [Cpd 146]	7.00	–	–	103%
CCOP(=O)(OCC)C(Cc1ccccc1Cl)c1sc2ccccc2c1Br (centres unmarked) [Cpd 147]	6.90	–	–	103%
CCOP(=O)(OCC)C(Cc1cc(C(F)(F)F)ccc1Cl)c1sc2ccccc2c1Br (centres unmarked) [Cpd 148]	6.76	–	–	103%
CCOP(=O)(OCC)C(Cc1ccc(OC(F)(F)F)c(Cl)c1)c1sc2ccccc2c1Br (centres unmarked) [Cpd 149]	7.22	–	–	103%
CCOP(=O)(OCC)C(Cc1ccc(C(F)(F)F)cc1F)c1sc2ccccc2c1Br (centres unmarked) [Cpd 150]	7.05	–	–	103%
CCOP(=O)(OCC)C(Cc1cccc(C(F)(F)F)c1Cl)c1sc2ccccc2c1Br (centres unmarked) [Cpd 151]	6.92	–	–	103%
CCOP(=O)(OCC)C(Cc1ccc(OC)c(C(F)(F)F)c1)c1sc2ccccc2c1Br (centres unmarked) [Cpd 152]	7.27 and 7.30	–	–	102% and 92%
CCOP(=O)(OCC)C(Cc1ccc(SC(F)(F)F)cc1)c1sc2ccccc2c1Br (centres unmarked) [Cpd 153]	7.37	–	–	103%
CCOP(=O)(OCC)C(Cc1ccc(C(F)(F)F)cc1)c1sc2ccccc2c1Br (centres unmarked) [Cpd 154]	7.57	–	–	103%
CCOP(=O)(OCC)C(Cc1ccc(F)c(OC)c1)c1sc2ccccc2c1Br (centres unmarked) [Cpd 156]	–	–	–	103%
COc1cc(CC(c2sc3ccccc3c2Br)P(=O)(OC(C)C)OC(C)C)ccc1F (centres unmarked) [Cpd 157]	–	–	–	103%
CCOP(=O)(OCC)C(Cc1ccc(OC)c(F)c1)c1sc2ccccc2c1Br (centres unmarked) [Cpd 158]	7.23	–	–	101%
COc1ccc(CC(c2sc3ccccc3c2Br)P(=O)(OC(C)C)OC(C)C)cc1F (centres unmarked) [Cpd 159]	7.44	–	–	103%
CCOP(=O)(OCC)C(Cc1c(F)c(F)c(OC)c(F)c1F)c1sc2ccccc2c1Br (centres unmarked) [Cpd 160]	7.22	–	–	87%
COc1c(F)c(F)c(CC(c2sc3ccccc3c2Br)P(=O)(OC(C)C)OC(C)C)c(F)c1F (centres unmarked) [Cpd 161]	7.72	–	–	103%
CCOP(=O)(OCC)C(Cc1cccc(OC)c1F)c1sc2ccccc2c1Br (centres unmarked) [Cpd 162]	7.49	–	–	103%
COc1ccc(CC(c2sc3ccccc3c2Br)P(=O)(OC(C)C)OC(C)C)c(F)c1 (centres unmarked) [Cpd 163]	7.70	–	–	103%
CCOP(=O)(OCC)C(Cc1cc(OC)c(Cl)cc1F)c1sc2ccccc2c1Br (centres unmarked) [Cpd 164]	7.09	–	–	94%
COc1cc(CC(c2sc3ccccc3c2Br)P(=O)(OC(C)C)OC(C)C)c(F)cc1Cl (centres unmarked) [Cpd 165]	7.07	–	–	102%
